Assay results as given in PubChem BioAssay (NCI).
Where “and” joins values, the source holds several entries; their conditions need not be identical. Equal values may be shown once.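 Test compounds were applied to cells in 96-well plates for 48 hours at 5 doses. GI50: concentration for 50% inhibition of growth. TGI denotes the concentration required for complete inhibition of growth.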

Experiments:
Assay in all cases: NCI-60 cell line screen, 48 h
PC-3 prostate = tested on: PC-3 prostate
K-562 leukemia = tested on: K-562 leukemia
CCRF-CEM leukemia = tested on: CCRF-CEM leukemia
HCT-116 colon = tested on: HCT-116 colon
OVCAR-4 ovarian = tested on: OVCAR-4 ovarian
SK-OV-3 ovarian = tested on: SK-OV-3 ovarian
A549 NSCLC = tested on: A549 NSCLC
COLO 205 colon = tested on: COLO 205 colon
TK-10 renal = tested on: TK-10 renal
HL-60(TB) leukemia = tested on: HL-60(TB) leukemia

Row | Compound | TGI (PC-3 prostate) | TGI (K-562 leukemia) | TGI (CCRF-CEM leukemia) | TGI (HCT-116 colon) | TGI (OVCAR-4 ovarian) | TGI (SK-OV-3 ovarian) [µM] | TGI (A549 NSCLC) | TGI (COLO 205 colon) | TGI (TK-10 renal) [µM] | TGI (HL-60(TB) leukemia) | GI50 (PC-3 prostate) [µM] | GI50 (K-562 leukemia) [µM] | GI50 (CCRF-CEM leukemia) [µM] | GI50 (HCT-116 colon) [µM] | GI50 (OVCAR-4 ovarian) [µM] | GI50 (SK-OV-3 ovarian) [µM] | GI50 (A549 NSCLC) [µM] | GI50 (COLO 205 colon) [µM] | GI50 (TK-10 renal) [µM] | GI50 (HL-60(TB) leukemia) [µM]
1 | CCC1CCC2C3CC=C4CC(OC(C)=O)C(N)CC4(C)C3CCC12C (stereo unspecified) | 7.97 µM | 4.91 µM | 10 µM | 6.14 µM | 18 µM | 24.1 | 5.13 µM | 10 µM | 6.1 | 4.48 µM |  |  |  |  |  |  |  |  |  | 
2 | CC/C=C\C[C@H](O)C/C=C1/C(=O)C=C[C@@H]1C/C=C\CCCC(=O)OCCS(=O)(=O)c1ccccc1 | 10.9 µM | 63.8 µM | 9.26 µM | 5.06 µM | 16.9 µM | 27.7 | 25.8 µM | 6.89 µM | 17.3 | 12.3 µM | 3.83 | 3.04 | 2.44 | 2.35 | 4.05 | 6.38 | 6.04 | 2.85 | 5.58 | 2.84
3 | CC(C)(C)n1nc(C2CC2)cc1NC(=O)Nc1ccc(Cl)cc1 | > 100 µM | > 100 µM |  | > 100 µM | > 100 µM | > 100 | > 100 µM | > 100 µM | > 100 | > 100 µM |  |  |  |  |  |  |  |  |  | 
4 | NNC(=O)C(O)C(O)C(O)CO (stereo unspecified) | > 100 µM | > 100 µM | > 100 µM | > 100 µM | > 100 µM | > 100 | > 100 µM | > 100 µM | > 100 | > 100 µM |  |  |  |  |  |  |  |  |  | 
5 | COc1cc(/C=C/C(=O)c2ccc(F)cc2)ccc1OCCCCOc1cc2c(cc1OC)C(=O)N1CCCC1C=N2 (stereo unspecified) | 12.8 µM | 4.05 µM | 1.88 µM | 6.09 µM | > 23.9 µM | > 44.5 | > 21.9 µM | 9.19 µM | 23.2 | 1.21 µM | 0.923 | 0.62 | 0.285 | 0.618 | 2.99 | 1.67 | 2.46 | 2.11 | 1.7 | 0.477
6 | CCCCCCCCCCCCCCCCCc1cc(Cl)nc(Cl)n1 | > 100 µM | > 100 µM | > 100 µM |  | > 100 µM | > 100 | > 100 µM |  | > 100 | > 100 µM |  |  |  |  |  |  |  |  |  | 
7 | O=C1C2=C(C(=O)c3c(O)ccc(O)c31)N(c1cccnc1)Cc1ccccc1O2 | 2.03 µM |  | 0.513 µM | 0.324 µM |  | 12.8 | 19.9 µM | 0.333 µM | 0.983 | 0.484 µM | 0.653 | 0.0752 | 0.0878 | 0.0923 |  | 3.52 | 2.85 | 0.102 | 0.27 | 0.154
8 | C=C(C)[C@@H]1CC[C@]2(C(=O)N3CCN(C)CC3)CC[C@]3(C)[C@H](CC[C@@H]4[C@@]5(C)C/C(=C/c6ccncc6)[C@H](O)C(C)(C)[C@@H]5CC[C@]43C)[C@@H]12 | 16.7 µM |  | 24.5 µM | 4.46 µM | > 100 µM | 96.5 | > 100 µM | 23 µM | 89.4 | 5.58 µM | 2.75 | 2.79 | 3.3 | 1.6 | 7.08 | 12 | 5.2 | 3.16 | 15.5 | 2.29
9 | O=C1c2cccc3c([N+](=O)[O-])ccc(c23)C(=O)N1CCCCl | > 10 µM | > 10 µM | 3.28 µM | 3.16 µM | > 10 µM | > 10 | > 10 µM | > 10 µM | > 10 | > 10 µM | 7.49 | 3.04 | 0.489 | 1.71 | 4.77 | > 10 | > 10 | > 10 | > 10 | 5.18
10 | C/C(=N\N)C(CN1CCCCC1)C(c1ccccc1)c1c(O)c2ccccc2oc1=O (stereo unspecified) | > 100 µM | > 100 µM | > 100 µM | > 100 µM | > 100 µM | > 100 | > 100 µM | > 100 µM | > 100 | > 100 µM |  |  |  |  |  |  |  |  |  | 
11 | CS(=O)(=O)OCCCCOS(C)(=O)=O | 250 µM and > 1000 µM | 223 µM and > 1000 µM | 250 µM and > 877 µM | 250 µM and > 1000 µM | 223 µM and > 1000 µM | > 1000 | 243 µM and > 1000 µM | 250 µM and > 1000 µM | > 464 | 224 µM and 858 µM | > 1000 | 795 | 214 | 689 | > 1000 | 804 | 538 | > 1000 | > 464 | 212
12 | COc1ccc(-c2cnc(SCC(=O)c3c(C)n(C)n(-c4ccccc4)c3=O)n2-c2ccc(OC)cc2)cc1 | > 50 µM | > 50 µM |  | > 50 µM |  |  | > 50 µM | > 50 µM | > 50 | > 50 µM | 40.1 | 33.2 |  | 20.3 |  |  | > 50 | > 50 | > 50 | 36.8
13 | O=C(/C=C/c1ccccc1)Nc1ncc(Cc2ccccc2)s1 | > 100 µM | > 37.1 µM | > 80.8 µM | > 33.4 µM | 6.54 µM | 6.24 | > 55.1 µM | 2.13 µM | > 46.4 | 0.609 µM | 0.275 | 0.0624 | 0.194 | 0.141 | 1.38 | 0.458 | 0.322 | 0.288 | 1.34 | 0.212
14 | O=C(CC(O)c1cccnc1)CC(O)c1cccnc1 (stereo unspecified) | 42.9 µM | > 51.5 µM | 20.9 µM | 4.33 µM | 40.9 µM | 32.6 | 47.7 µM | 29 µM | > 100 | > 100 µM |  |  |  |  |  |  |  |  |  | 
15 | C[C@]12CC/C(=N\O)C[C@@H]1CC[C@@H]1[C@@H]2CC[C@]2(C)/C(=N/O)CC[C@@H]12 | > 100 µM | > 100 µM |  | 58.5 µM | > 100 µM | > 100 | > 100 µM | > 100 µM | > 100 | > 100 µM | 43.7 | 40.9 |  | 23.3 | 56.8 | 51.4 | 52.7 | 35.8 | 32.1 | 23.2
16 | CC(/C=C/C=C\C=C\C=C(/C)C(=O)NC(C)CO)=C\C(C)C(O)/C(C)=C/C(C)CCc1ccccc1 (stereo unspecified) | 25.2 µM | > 53.6 µM | > 56.6 µM | 19.4 µM | 37.4 µM | 64 | > 100 µM | 26.8 µM | 32.1 | > 100 µM |  |  |  |  |  |  |  |  |  | 
17 | Cc1ccc(C(=O)Nc2ccc(CN3CCN(C)CC3)c(C(F)(F)F)c2)cc1C#Cc1cnc(N)c2ccc(C#N)cc12 | 13.8 µM |  | 18 µM | 7.3 µM | 11.8 µM | 12.8 | 12.8 µM | > 46.5 µM | 5.75 | > 50 µM | 2.09 |  | 0.807 | 0.167 | 0.375 | 0.0981 | 0.917 | 0.28 | 0.625 | 0.338
18 | COc1ccc2c3c(ccc2c1)NC(C(=O)O)CC3 (stereo unspecified) | > 100 µM | > 100 µM |  | > 100 µM | > 100 µM | > 100 | > 100 µM | > 100 µM | > 100 | 82.9 µM |  |  |  |  |  |  |  |  |  | 
19 | COc1ccc2nc(-c3ccc(Cl)cc3)cc(-c3nnc(SCC(=O)Nc4ccc(/C(C)=N\O)cc4)o3)c2c1 | 2.97 µM | > 50 µM | > 50 µM |  | 1.84 µM | 18.7 | 3.21 µM | 3.53 µM | 8.05 | > 50 µM | 1.29 | 2.83 | 2.49 |  | 0.904 | 6.23 | 1.23 | 1.15 | 1.61 | > 50
20 | Oc1ccccc1/C=N/Nc1nc2ccccc2s1 | > 100 µM | > 100 µM | > 100 µM | > 100 µM | > 100 µM | > 100 | > 100 µM | > 100 µM | > 100 |  | 11 | 6.48 | 4.37 | 2.85 | 2.31 | 15.2 | 6.52 | 4.7 | 4.79 | 
21 | CC1=CC[C@@H]2[C@@H](CC[C@@]2(C)O)C(C)(C)[C@H]1CC[C@@H]1[C@@]2(C)CC[C@@H](O)C(C)(C)O[C@@H]2CC[C@]1(C)O | > 100 µM | > 100 µM |  | 27 µM | > 100 µM | > 100 | > 100 µM | 38.1 µM | > 100 | 40.5 µM |  |  |  |  |  |  |  |  |  | 
22 | Cc1c(C)n(CC(O)CNC2CCCCC2C)c2ccccc12 (stereo unspecified) | 26.2 µM | 20.1 µM |  | 24.4 µM | 24.4 µM | 32.9 | 32.8 µM | 4.82 µM |  | 42.7 µM | 13.4 | 3.93 |  | 12 | 12 | 18.2 | 16.9 | 2.21 |  | 19.2
23 | Cc1cc(NCCCNc2ccnc3cc(Cl)ccc23)nc(Nc2ccc(C(=O)N3CCCCC3)cc2)n1 | 14.4 µM | 6.4 µM | 8.4 µM | 5.83 µM | 12.6 µM | 8.23 | 10.4 µM | 3.62 µM | 4.59 |  | 3.9 | 1.98 | 2.48 | 2.22 | 2.83 | 3.14 | 3.56 | 1.8 | 1.99 | 
